In US10695427B2, “Shape memory particles for biomedical uses” (The Johns Hopkins University, priority 2015, dated 2020):

Legend:
MDA-MB-231 cells [1] = assay: Paclitaxel/digoxin treatment of TNBC orthografts (tumor volume, Aldefluor assay, RT-qPCR); format: in vivo, mice; conditions: tumors harvested on day 12; for percentage of ALDH+ cells (Aldefluor assay): compared with saline treatment
Protocol: MDA-MB-231 cells were implanted into the mammary fat pad of female severe combined immunodeficiency (Scid) mice. Mice were randomized to four groups, which were treated with: saline (control, C); digoxin (D); paclitaxel (P); or paclitaxel and digoxin (P/D). […] Tumors were harvested on day 12 for Aldefluor assay to determine the percentage of aldehyde dehydrogenase-expressing (ALDH^+) BCSCs (FIG. 17B) and RT-qPCR assays to quantify the expression of mRNAs encoding interleukin (IL) 8, IL-6, and the multidrug drug resistance protein MDR1 (FIG. 17C).

MDA-MB-231 cells [2] = assay: Gemcitabine/digoxin combination therapy, tumor relapse; format: in vivo, mice
Protocol: MDA-MB-231 cells were implanted into the mammary fat pad of female Scid mice. When a tumor was palpable (day 1), the mice were randomized to three groups, which were treated with intraperitoneal injections of: saline, gemcitabine [20 mg/kg on days 5, 10, 15, 20, and 25 (arrows)], or gemcitabine and digoxin (2 mg/kg on days 1-25). Tumor volumes were determined every 2-3 d and mean±SEM (n=3) are shown.
To examine the effect of HIF inhibition on tumor relapse, MDA-MB-231 cells were implanted into the mammary fat pad of Scid mice. When the tumor became palpable, the mice were randomized to receive intraperitoneal injections of saline, gemcitabine (20 mg/kg on days 5, 10, 15, 20, and 25), or the combination of digoxin (2 mg/kg on days 1-25) and gemcitabine.

Row | Compound | expression of IL-6, IL-8, and MDR1 mRNA (MDA-MB-231 cells [1]; RT-qPCR) | percentage of ALDH+ cells (Aldefluor assay) (MDA-MB-231 cells [1]) | tumor growth during treatment (MDA-MB-231 cells [2]; intraperitoneal, gemcitabine 20 mg/kg days 5, 10, 15, 20, 25, digoxin 2 mg/kg days 1-25, Scid mice) | tumor growth after treatment was discontinued (relapse) (MDA-MB-231 cells [2]; up to day 32, 7 days after treatment was discontinued)
1 | CC(=O)O[C@H]1C(=O)[C@@]2(C)[C@H]([C@H](OC(=O)c3ccccc3)[C@]3(O)C[C@H](OC(=O)[C@H](O)[C@@H](NC(=O)c4ccccc4)c4ccccc4)C(C)=C1C3(C)C)[C@]1(OC(C)=O)CO[C@@H]1C[C@@H]2O [paclitaxel] | increased | significantly increased |  | 
2 | C[C@H]1O[C@@H](O[C@H]2[C@@H](O)C[C@H](O[C@H]3[C@@H](O)C[C@H](O[C@H]4CC[C@@]5(C)[C@H](CC[C@@H]6[C@@H]5C[C@@H](O)[C@]5(C)[C@@H](C7=CC(=O)OC7)CC[C@]65O)C4)O[C@@H]3C)O[C@@H]2C)C[C@H](O)[C@@H]1O [digoxin] |  | significantly decreased |  | 
3 | Nc1ccn([C@@H]2O[C@H](CO)[C@@H](O)C2(F)F)c(=O)n1 [gemcitabine] |  |  | markedly reduced tumor growth | rapid tumor growth resumed
